According to patent US7030257B2, “Metallocenes and processes for their preparation” (Agency for Science, Technology and Research, priority 2004, dated 2006):

Tested on: double-stranded DNA
Experiment: Competition experiment against ethidium bromide (EB) for binding to EB-saturated double-stranded DNA, gel electrophoresis fluorescence readout
Description: A competition experiment was designed to obtain an estimate of the nucleic acid intercalating property of the compound of the invention. The basis of this methodology involves the use of two intercalators, one fluorescent and one non-fluorescent. The fluorescent intercalator first saturates the double-stranded DNA. Then a second intercalator, in this case VFcTMEDA, is introduced into the system with gradual increasing concentration. […] For the competition experiment, the changes in fluorescent intensity were monitored during the displacement of DNA-bound fluorescent molecules by VFcTMEDA through an increasing concentration of the VFcTMEDA molecules in the system. A well-known threading intercalator, ethidium bromide (EB), was chosen as our fluorescent indicator.
Subsequently, VFcTMEDA was studied with respect to its ability to compete against EB for binding to DNA using the same approach. Different amounts of VFcTMEDA were mixed with the EB saturated double-stranded DNA to examine the bind ability. […] Lanes 1 to 5 correspond to different ratios of VFcTMEDA/EB.

vinylferrocene tetramethylethylenediamine [VFcTMEDA]
enhancement of binding constant over EB (Kd of VFcTMEDA relative to EB): ~26 fold | DNA-bound EB replaced (VFcTMEDA/EB molecular ratio 1/5 (second lane)): more than 50%
